Data taken from patent US20200368280A1, “EPIGENETIC MODIFIERS FOR USE IN CELLULAR IMMUNOTHERAPY” (Viracta Therapeutics, Inc., priority 2018, published 2020).
Where two headings read alike, the source gives them in different places.

Experiments:
[1] = test system: BALB/c splenocytes (FoxP3+, CD25+ T regulatory cells); experiment: FACS analysis of splenocytes treated 24 hours with HDAC inhibitor; type: cell-based, BALB/c mice
Procedure: Test agents were added to each plate at the concentrations indicated in the table below and were incubated for 24 hours prior to FACS analysis. FACS analysis consisted of the following markers: live/dead, CD45, CD3, CD4, CD25 and FoxP3.

[2] = test system: exhausted T cell population (CD8+ T cells) from PBMC; experiment: T cell exhaustion assay, CEFT-exhausted PBMC restimulated with DC and CEFT; type: cell-based, human; settings: for IFN-γ release by restimulated CD8+ T cells (percent IFNγ secreting CD8+ cells, FIG. 11) / CD8+ T cell proliferation (FIG. 9B, 9C): restimulated with CEFT; for CD8+ T cell proliferation (FIG. 9B, 9C): compared to CEFT alone
Procedure: FIGS. 12A, 12B and 12C show the effects of anti-PD-1 and nanatinostat treatment on IFN-γ, TNFα, and TGFβ. Isolated PBMC were exhausted with CEFT-stimulation for 10 days prior to being restimulated with moDC and CEFT peptide with compound treatment for an additional 4 days. Luminex analysis was performed and levels of IFN-γ (FIG. 12A), TNFα (FIG. 12B), and TGFβ (FIG. 12C). Dotted lines denote anti-PD-1 control treatment and vehicle control treatment as indicated.
To test whether nanatinostat can be used to reverse T cell exhaustion, whether by itself or in combination with PD-1, a standard T cell exhaustion assay was used. Peripheral Blood Mononuclear Cells (PBMC) were separated over a density gradient from 3 single human donor buffy coats. PBMC were stimulated with pooled pathogen-specific class I peptides (CEFT) to generate an exhausted T cell population. Cells were then re-stimulated with CEFT and autologous monocyte-derived dendritic cells for a further time before testing in a final re-stimulation assay using replenished DC and CEFT to monitor reversal of exhaustion. […] One dose of HDAC inhibitor was tested and a single dose of anti-PD-1 was used. An unstimulated control and a reference HDAC inhibitor were also plated. Cultures were pulsed with 3H-thymidine and proliferation assessed. Supernatants were also harvested for cytokine analysis by multiplex. Samples of cells were stained with an antibody panel directed against CD4, CD8, PD-1, IL-15R, TIGIT, CD45RO, CCR7, IFNγ and CD25 and characterized using flow cytometry in order to confirm their exhausted phenotype, and whether expression levels were altered following exposure to the combination therapies. PBMC were also phenotyped using the above panel at day 0 to determine the initial frequency of cell populations.

T cells in CT26 tumors = experiment: FACS analysis of CT26 tumors on Day 9; type: in vivo, Balb/c mice
Procedure: (§1) Nanatinostat alone and in combination with anti-mPD-1 was evaluated in the CT26 subcutaneous tumor model in Balb/c mice. Animals were dosed orally with nanatinostat at 25 mg/kg daily, and intraperitoneally with anti-mPD-1 at 10 mg/kg on a bi-weekly schedule. 8 animals per group were selected and tumors were collected for FACS and qPCR analysis on Day 9, 12-13 hours post dose. The remaining animals continued to receive their respective treatments until Day 21.
On Day 9, N=8/arm were harvested tumors for PD assessment 12-13 hours post last dose. Half of each tumor was placed in transfer buffer for FACS analysis.

[3] = test system: gene expression in CT26 tumors; experiment: qPCR gene expression analysis of CT26 tumors on Day 9; type: in vivo, Balb/c mice; settings: Day 9, tumors
Procedure: as §1
On Day 9, N=8/arm was harvested tumors for PD assessment. Half of each tumor was flash frozen for subsequent qPCR analysis. Fragments of flash frozen tumors were transferred in RLT PLUS buffer (Qiagen) and loaded into labelled and prefilled tubes with beads and homogenized for 60 seconds at maximum speed. RNA was extracted with AllPrep DNA/RNA Mini kit, purchased from Qiagen, according to the manufacturer's protocol. RNA quantity and purity was evaluated by Synergy 2 Multi-Mode Reader according to the Biotec Protocol. 750 ng total RNA from each sample was used to generate cDNA in a 20 μl reaction. The reaction was performed to the standard of Superscript III First-Strand Synthesis protocol by ThermoFisher by using Eppendorf Mastercycler Pro. […] Gene expression data was analyzed on the ViiA7 system using ABI 2.1 software to generate the raw data. […]

CT26 subcutaneous tumor = type: in vivo; settings: nanatinostat 25 mg/kg orally daily, anti-mPD-1 10 mg/kg intraperitoneally
Procedure: as §1
144 female Balb/c mice (date of birth: Aug. 1, 2017) purchased from Jackson Laboratories were inoculated for the study. Animals were housed for a stabilization period of 5 days prior to inoculation. Animals were housed in individual HEPA ventilated cages (Innocage® IVC, Innovive USA). Fluorescent lighting was provided on a 12-hour cycle. Temperature and humidity was monitored and recorded daily and maintained to the maximum extent possible between 68-74° F. (20-23° C.) and 30-70% humidity, respectively. 2920X.10 18% soy irradiated rodent feed (Envigo) and autoclaved acidified water (pH2.5-3) was provided ad libitum.
CT26 cells were cultured as per ATCC's recommended culture protocol. For inoculation, cells were washed in PBS, counted, and resuspended in cold PBS at a concentration of 250,000 viable cells/100 μl. Cell suspension was kept on ice during transport to the vivarium. Cells were prepared for injections by withdrawing cells into a chilled 1 ml syringe fitted with a 26G 7/8 (0.5 mm×22 mm) needle.
Animals were prepared as needed for injection using standard approved anesthesia, and the mice were shaved prior to injection. One mouse at a time was immobilized and the site of injection was disinfected with an alcohol swab. 100 μl of the cell suspension was subcutaneously injected into the rear flank of the mouse. Mice were marked by ear tagging.
Animals were monitored daily for palpable tumors, or any changes in appearance or behavior. Once tumors were palpable, they were measured using calipers. Tumor volume was calculated using the following equation (longest diameter×shortest diameter^2)/2.

[4] = 1 uM, 24 hours, percentage ± SD
[5] = 100 nM, 24 hours, percentage ± SD
[6] = listed as head prints 'nM' (1 nM), 24 hours, percentage ± SD
[7] = combination vs anti PD-1 only, nanatinostat only vs vehicle

Compound	CD45+ [1, 4]	IFN-γ release by restimulated CD8+ T cells (percent IFNγ secreting CD8+ cells, FIG. 11) [2]	CD8+ T cell proliferation (FIG. 9B, 9C) [2]	CD45+ [1, 5]	CD45+ CD3+ [1, 5]	CD45+ ([1]; 500 nM, 24 hours, percentage ± SD)	concentration at which the suppressive effect on FoxP3, CD25+ T cells was still seen ([1]; at least as low as)	CD45+ [1, 6]	CD45+ CD3+ CD4+ FoxP3+ [1, 6]	CXCR3 expressing cell population in CD4+ T cells in tumors (FIG. 5A) (T cells in CT26 tumors; [7])	CXCR3 expressing cell population in CD8+ T cells in tumors (FIG. 5B) (T cells in CT26 tumors; [7])	CD8+ T-cell population in tumors (T cells in CT26 tumors; compared to the vehicle group)	T cell infiltration in tumors (FIG. 4) (T cells in CT26 tumors; compared to vehicle or anti-PD-1 group, p-value 0.007 for both)	cell viability (FIG. 10A, 10B) ([2]; compared to Entinostat)	KLRC2 expression on NK cells (FIG. 8) [3]	inhibition of tumor growth (CT26 subcutaneous tumor; Day 3)	inhibition of tumor growth (CT26 subcutaneous tumor; Day 4)	inhibition of tumor growth (CT26 subcutaneous tumor; Day 7)	inhibition of tumor growth (CT26 subcutaneous tumor; Day 9)	inhibition of tumor growth (CT26 subcutaneous tumor; Day 9, listed as nanatinostat)
Nc1ccccc1NC(=O)c1ccc(CNC(=O)OCc2cccnc2)cc1 [Entinostat, reference compound]	99.1 ± 0.27%	reduced	–	–	–	–	–	–	–	–	–	–	–	–	–	–	–	–	–	–
anti-PD-1 (Pembrolizumab): anti-PD-1 antibody used in the human T cell exhaustion assay [reference compound]	–	–	restored proliferation	–	–	–	–	–	–	–	–	–	–	–	–	–	–	–	–	–
O=C(NO)c1cnc(N2CC3C(C2)C3NCc2ccc3cc(F)ccc3n2)nc1 (centres unmarked) [Nanatinostat, 2-(6-{[(6-Fluoroquinolin-2-yl)methyl]amino}-3-azabicyclo[3.1.0]hex-3-yl)-N-hydroxypyrimidine-5-carboxamide]	99.6 ± 0.17%	little effect	negative effect	99.6 ± 0.12%	94 ± 0.83%	99.5 ± 0.29%	≤ 100 nM	98.6 ± 0.36%	12 ± 1.51%	no significant difference	no significant difference	higher	significantly increased	well tolerated	increased	16.20%	23.31%	38.94%	33.81%	33%
